In patent US9017952B2, “Reagents for probing ROCKs activation” (National Yang Ming University, priority 2012, dated 2015):
Values belong to the molecule of their own block, whether it stands above or below them. Square brackets hold non-standard residues; d marks the D form. Ends that are not written are not given here. pS = N[C@@H](COP(=O)(O)O)C(=O)O

How the values were obtained:
[1] = system: Ser^1333 phosphorylated flag-ROCKI; assay: Western blotting with anti-pSer1333 ROCKI antibody, with peptide neutralization; type: binding; conditions: peptide 0.2 μg/ml, antibody 1 μg/ml
Method: FIG. 2(B) illustrates the Western blotting pattern showing anti-pSer^1333 ROCKI antibody-I against the phosphorylated ROCKI. flag-ROCKI protein is obtained with extraction after the WT or S1333A mutant flag-ROCKI expression constructs are respectively transfected to […] cells and immunoprecipitated using anti-flag antibody, and Ser^1333 phosphorylation of flag-ROCKI is probed with antibody-I (1 μg/ml) with or without the competition of phosphorylated peptide-Ia (0.2 μg/ml).
myc-ROCKII-expressing cells were harvested in an immunoprecipitation (IP) buffer (1% NP-40, 5% glycerol, 50 mM Tris/HCl, pH 7.4, 150 mM NaCl, 1 mM PMSF (phenylmethylsulfonyl fluoride), and protease inhibitor cocktail). The lysates after pre-clearance were incubated with anti-myc antibody at 4° C. for 60 minutes, and then precipitated with protein A-agarose beads for 30 minutes. The immunoprecipitates were preincubated with or without 100 μM of Y27632 (ROCK inhibitor), which was followed by incubation with a IX kinase buffer (50 mM Tris/HCl, pH 7.4, 10 mM MgCl2, 1 mM EGTA (ethylene glycol tetraacetic acid), 0.5 mM DTT (dithiothreitol), 5 mM NaF, and 0.1 mM Na3VO4, 20 μM ATP) containing 5 μCi of [γ-^32p]ATP at 30° C. for 20 minutes. […] The protein level of myc-ROCKII was detected by Western blotting with anti-myc antibody known by the skilled person in the art. […]

[2] = system: Ser^1366 phosphorylated myc-ROCKII; assay: Western blotting with anti-pSer1366 ROCKII antibody, with peptide neutralization and λPPase treatment; type: binding; conditions: peptide 0.2 μg/ml, antibody 1 μg/ml
Method: FIG. 2(A) illustrates the Western blotting pattern showing anti-pSer^1366 ROCKII antibody-II against the phosphorylated ROCKII. myc-ROCKII protein is obtained with extraction after the WT or S1366A mutant myc-ROCKII expression constructs are respectively transfected into HEK-293T cells and immunoprecipitated using anti-myc antibody, and Ser^1366 phosphorylation of myc-ROCKII is probed with antibody-II (1 μg/ml) with or without the competition of phosphorylated peptide-IIa (0.2 μg/ml).
FIG. 3 illustrates the Western blotting pattern showing the signal of immunoprecipitated WT myc-ROCKII with or without λ protein phosphatase (λPPase) at 30° C. for 20 minutes treatment probed with antibody-II
myc-ROCKII-expressing cells were harvested in an immunoprecipitation (IP) buffer (1% NP-40, 5% glycerol, 50 mM Tris/HCl, pH 7.4, 150 mM NaCl, 1 mM PMSF (phenylmethylsulfonyl fluoride), and protease inhibitor cocktail). The lysates after pre-clearance were incubated with anti-myc antibody at 4° C. for 60 minutes, and then precipitated with protein A-agarose beads for 30 minutes. […] The protein level of myc-ROCKII was detected by Western blotting with anti-myc antibody known by the skilled person in the art. […]

[3] = system: ROCKII Ser^1366 phosphorylation; assay: immunohistochemical staining of human breast tumor tissue with anti-pSer1366 ROCKII antibody and peptide competition; conditions: antibody 5 μg/ml, peptide 0.5 μg/ml
Text: FIG. 7 illustrates the immunohistochemistry images showing RCOKII Ser^1366 phosphorylation in human breast tumor tissues. The tumor part and non-tumor part breast tissues of from two breast cancer patients are sectioned, and probed with anti-pSer^1366 ROCKII antibody in the presence of phosphorylated peptide-lib and unphosphorylated peptide-IIa. The normal rabbit IgG is the control for negative reaction, and #1 is negative for lymph node and #2 is positive for lymph node.
The tumor part and the non-tumor part of the breast tissue blocks were embedded in Tissue-Tek OCT™ compound, snap-frozen, and sectioned into 5 μm cryosections. The sections were fixed with 4% (w/v) paraformaldehyde for 15 minutes and placed in boiling citrate buffer for 10 minutes. Endogenous peroxidase activity was quenched by 3% […] for 10 minutes and this was followed by incubation with 5.5% (v/v) normal goat serum in Tris-buffer saline containing 0.1% of Triton X-100 (TBST) for blocking. Sections were subsequently incubated with primary antibody against pSer^1366 ROCKII (1:200 dilution; 5 μg/ml) in the present or absence of the phosphopeptide or non-phosphopeptide (0.5 μg/ml). […]
Next, whether ROCKII Ser^1366 phosphorylation can be detected is determined by anti-pSer^1366 ROCKII antibody-II. […]

myc-ROCKII = myc-ROCKII (Bos taurus, UniProt Q28021); assay: in vitro kinase reaction of immunoprecipitated myc-ROCKII with [γ-32P]ATP (autophosphorylation); type: biochemical; conditions: immunoprecipitates preincubated with 100 μM Y27632; 30° C., 20 minutes
Sequence of myc-ROCKII (Q28021 6-1388): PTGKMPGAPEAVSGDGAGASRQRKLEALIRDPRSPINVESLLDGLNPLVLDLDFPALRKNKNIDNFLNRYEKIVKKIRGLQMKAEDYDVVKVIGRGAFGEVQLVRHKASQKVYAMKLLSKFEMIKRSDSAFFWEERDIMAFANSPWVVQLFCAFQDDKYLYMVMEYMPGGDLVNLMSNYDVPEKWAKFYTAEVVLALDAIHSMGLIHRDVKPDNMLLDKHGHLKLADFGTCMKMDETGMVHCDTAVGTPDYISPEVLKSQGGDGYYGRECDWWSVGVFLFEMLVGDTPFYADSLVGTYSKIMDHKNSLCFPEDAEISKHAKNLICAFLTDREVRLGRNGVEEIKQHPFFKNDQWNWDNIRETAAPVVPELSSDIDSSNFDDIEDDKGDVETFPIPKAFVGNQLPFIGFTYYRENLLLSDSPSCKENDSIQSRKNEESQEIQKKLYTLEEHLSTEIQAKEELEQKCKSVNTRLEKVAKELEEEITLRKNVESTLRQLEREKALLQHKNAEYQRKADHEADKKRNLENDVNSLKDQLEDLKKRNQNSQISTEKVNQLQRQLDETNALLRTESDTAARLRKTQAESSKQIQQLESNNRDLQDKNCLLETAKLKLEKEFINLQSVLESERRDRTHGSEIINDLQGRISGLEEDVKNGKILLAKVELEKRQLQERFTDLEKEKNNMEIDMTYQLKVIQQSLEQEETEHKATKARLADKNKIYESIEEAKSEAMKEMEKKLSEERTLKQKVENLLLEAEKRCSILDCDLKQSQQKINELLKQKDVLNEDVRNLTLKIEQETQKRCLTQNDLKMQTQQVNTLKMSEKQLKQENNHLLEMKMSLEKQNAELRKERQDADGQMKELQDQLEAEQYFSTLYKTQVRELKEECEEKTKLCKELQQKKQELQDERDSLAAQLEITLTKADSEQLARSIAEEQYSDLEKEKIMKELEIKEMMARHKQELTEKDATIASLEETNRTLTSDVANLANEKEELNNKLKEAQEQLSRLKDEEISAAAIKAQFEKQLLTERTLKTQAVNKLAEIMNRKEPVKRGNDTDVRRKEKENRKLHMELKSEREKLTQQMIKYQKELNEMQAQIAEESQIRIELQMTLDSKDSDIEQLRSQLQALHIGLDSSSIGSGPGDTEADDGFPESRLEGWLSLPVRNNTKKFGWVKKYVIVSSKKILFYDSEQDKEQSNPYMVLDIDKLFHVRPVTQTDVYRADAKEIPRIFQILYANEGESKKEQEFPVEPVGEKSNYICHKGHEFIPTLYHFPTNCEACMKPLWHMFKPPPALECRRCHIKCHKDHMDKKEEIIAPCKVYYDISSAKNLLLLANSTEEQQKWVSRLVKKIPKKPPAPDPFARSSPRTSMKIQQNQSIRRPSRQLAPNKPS
Method: myc-ROCKII-expressing cells were harvested in an immunoprecipitation (IP) buffer (1% NP-40, 5% glycerol, 50 mM Tris/HCl, pH 7.4, 150 mM NaCl, 1 mM PMSF (phenylmethylsulfonyl fluoride), and protease inhibitor cocktail). The lysates after pre-clearance were incubated with anti-myc antibody at 4° C. for 60 minutes, and then precipitated with protein A-agarose beads for 30 minutes. The immunoprecipitates were preincubated with or without 100 μM of Y27632 (ROCK inhibitor), which was followed by incubation with a IX kinase buffer (50 mM Tris/HCl, pH 7.4, 10 mM MgCl2, 1 mM EGTA (ethylene glycol tetraacetic acid), 0.5 mM DTT (dithiothreitol), 5 mM NaF, and 0.1 mM Na3VO4, 20 μM ATP) containing 5 μCi of [γ-^32p]ATP at 30° C. for 20 minutes. The immunoprecipitates (controls) from non-transfected cells were used backgrounds.
The myc-ROCKII protein overexpressed in HEK-293T cells was immunoprecipitated and subjected to an in vitro kinase reaction containing [γ-^32P]ATP in the presence or absence of the ROCK inhibitor Y27632.

[4] = system: ROCKII Ser^1366 phosphorylation; assay: Western blotting of serum-starved mouse embryonic fibroblasts stimulated with nocodazole with or without Y27632; type: cell-based
Method: FIGS. 6(A) and 6(B) respectively illustrate the Western blotting patterns showing (A) antibody-I and (B) antibody-II against the protein extract from normal mouse embryonic fibroblasts (MEFs) stimulated with nocodazole(10 μM) in present or absent of Y27632 (10 μM).
In addition to the above human cell experiments, the level of Ser^1366 phosphorylation of ROCKII in animal cells is also researched in the present invention.

[5] = biological target: ROCKII Ser^1366 phosphorylation (Bos taurus, UniProt Q28021); assay: Western blotting of Ser1366 phosphorylated myc-ROCKII from treated HEK293T cells; type: cell-based, human; conditions: Y27632 20 μM for 2 hours, probed with antibody-II
Sequence of ROCKII Ser^1366 phosphorylation (Bos taurus, UniProt Q28021) (Q28021 6-1388): as above
Method: myc-ROCKII-expressing cells were harvested in an immunoprecipitation (IP) buffer (1% NP-40, 5% glycerol, 50 mM Tris/HCl, pH 7.4, 150 mM NaCl, 1 mM PMSF (phenylmethylsulfonyl fluoride), and protease inhibitor cocktail). The lysates after pre-clearance were incubated with anti-myc antibody at 4° C. for 60 minutes, and then precipitated with protein A-agarose beads for 30 minutes. The immunoprecipitates were preincubated with or without 100 μM of Y27632 (ROCK inhibitor), which was followed by incubation with a IX kinase buffer (50 mM Tris/HCl, pH 7.4, 10 mM MgCl2, 1 mM EGTA (ethylene glycol tetraacetic acid), 0.5 mM DTT (dithiothreitol), 5 mM NaF, and 0.1 mM Na3VO4, 20 μM ATP) containing 5 μCi of [γ-^32p]ATP at 30° C. for 20 minutes. The immunoprecipitates (controls) from non-transfected cells were used backgrounds. The protein level of myc-ROCKII was detected by Western blotting with anti-myc antibody known by the skilled person in the art.

[6] = MEFs serum-starved 24 hours, nocodazole 10 μM

Molecule: N′-RASPRTLpSTRS-C′ (SEQ ID NO:4) (RASPRTL[pS]TRS) [peptide-Ib]
neutralization of the autophosphorylated signal of anti-pSer^1333 ROCKI antibody [1]: neutralized

Molecule: N′-DPFARSSPRTpSMK-C′ (SEQ ID NO:6) (DPFARSSPRT[pS]MK) [peptide-lib]
neutralization of the autophosphorylated signal of anti-pSer^1366 ROCKII antibody [2]: neutralized | ROCKII Ser^1366 phosphorylation signal in IHC under peptide competition [3]: blocked

phosphorylation signal of radioactively labeled ROCKII (myc-ROCKII): abolished the phosphorylation signal | signal level of Ser^1366 phosphorylated myc-ROCKII [5]: markedly decreased
Molecule: C[C@@H](N)[C@H]1CC[C@H](C(=O)Nc2ccncc2)CC1 [Y27632]
enhanced phosphorylation signal (ROCKII Ser^1366, phospho-MLC) induced by nocodazole ([4]; MEFs, nocodazole 10 μM plus Y27632 10 μM): disappeared

Molecule: COC(=O)Nc1nc2ccc(C(=O)c3cccs3)cc2[nH]1 [nocodazole]
downstream phosphor-MLC signal regulated by ROCKII [4, 6]: markedly increased | signal of ROCKII Ser^1366 phosphorylation [4, 6]: enhanced
